How the values were obtained:
Type in all cases: physicochemical
[1] = Solid-form stability against disproportionation in the presence of water; conditions: compared to the tosylate and naphthalenesulfonic acid salt forms
[2] = Hygroscopicity, automated vapor sorption (DVS); conditions: salt form; lower than the tosylate and 1,5-naphthalenedisulfonic acid salt forms; vapor sorption at 25° C., 5 to 95% RH
Procedure: Automated vapor sorption data were collected on a TA Instruments Q5000SA vapor sorption analyzer. NaCl and PVP were used as calibration standards. Samples were not dried prior to analysis. Adsorption and desorption data were collected at 25° C. over a range from 5 to 95% RH at 10% RH increments under a nitrogen purge. Samples were held at the corresponding RH for 1 hour prior to moving to the next RH range. Data were not corrected for the initial moisture content of the samples.

[3] = pKa determination of the free base (salt screen)
Procedure: A salt screen was conducted to determine if a suitable salt form could be discovered. The pKa of the free base was determined to be less than 2, which limited the range of possible salt coformers. In addition, salts derived from (S)-1-(1-(4-chloro-3-fluorophenyl)-2-hydroxyethyl)-4-(2-((1-methyl-1H-pyrazol-5-yl)amino)pyrimidin-4-yl)pyridin-2(1H)-one free base would have a pHmax less than 2 and would be expected to disproportionate in water. Thus, it was not clear that a crystalline salt could be prepared or that any salt would have acceptable exposure in vivo (an aqueous environment). […] Eventually crystalline salts were obtained from 1,5-naphthalenedisulfonic acid, p-toluenesulfonic acid and benzenesulfonic acid.

For Cn1nccc1Nc1nccc(-c2ccn([C@H](CO)c3ccc(Cl)c(F)c3)c(=O)c2)n1.O=S(=O)(O)c1ccccc1 [besylate salt, (S)-1-(1-(4-Chloro-3-fluorophenyl)-2-hydroxyethyl)-4-(2-((1-methyl-1H-pyrazol-5-yl)amino)pyrimidin-4-yl)pyridin-2(1H)-one, Benzenesulfonate Salt], the stability [1] was “enhanced stability” and the hygroscopicity [2] was “non-hygroscopicity”.
For Cn1nccc1Nc1nccc(-c2ccn([C@H](CO)c3ccc(Cl)c(F)c3)c(=O)c2)n1 [VIII, (S)-1-(1-(4-chloro-3-fluorophenyl)-2-hydroxyethyl)-4-(2-(1-methyl-1H-pyrazol-5-ylamino)pyrimidin-4-yl)pyridin-2(1H)-one], the pKa [3] was less than 2 and the “pKa of the free base” value [3] was “less than 1.8”.
